According to ChEMBL document CHEMBL1201862, “PubChem BioAssay data set” (2004):
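Protocol summary: plate cells (96-well), add compound at 5 concentrations, incubate 48 h, interpolate endpoints linearly. GI50 marks 50% less growth.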 The source made the active and inactive calls. Rule as the data show it: active = GI50 up to about 1.1 µM and inactive = higher.

Columns and labels:
Assay in all cases: NCI-60 cell line screen, 48 h
MDA-N = test system: MDA-N
SR = test system: SR
UACC-62 = test system: UACC-62
786-0 = test system: 786-0
UO-31 = test system: UO-31
BT-549 = test system: BT-549
TK-10 = test system: TK-10
COLO 205 = test system: COLO 205
SK-MEL-5 = test system: SK-MEL-5
HOP-62 = test system: HOP-62
MCF7 = test system: MCF7
LOX IMVI = test system: LOX IMVI
SNB-19 = test system: SNB-19
MDA-MB-231 = test system: MDA-MB-231
CAKI-1 = test system: CAKI-1
SK-MEL-2 = test system: SK-MEL-2
HCT-116 = test system: HCT-116
OVCAR-3 = test system: OVCAR-3
NCI-H522 = test system: NCI-H522
SF-539 = test system: SF-539
HT-29 = test system: HT-29
NCI-H23 = test system: NCI-H23
Malme-3M = test system: Malme-3M
M14 = test system: M14
A549 = test system: A549
T47D = test system: T47D
CCRF-CEM = test system: CCRF-CEM
MDA-MB-435 = test system: MDA-MB-435
OVCAR-4 = test system: OVCAR-4
SK-MEL-28 = test system: SK-MEL-28
SW-620 = test system: SW-620
HCC 2998 = test system: HCC 2998
EKVX = test system: EKVX
SF-268 = test system: SF-268
KM12 = test system: KM12
PC-3 = test system: PC-3
UACC-257 = test system: UACC-257
NCI-H226 = test system: NCI-H226
OVCAR-5 = test system: OVCAR-5
HL-60 = test system: HL-60
U-251 = test system: U-251
IGROV-1 = test system: IGROV-1
NCI/ADR-RES = test system: NCI/ADR-RES
RXF 393 = test system: RXF 393
SNB-75 = test system: SNB-75
ACHN = test system: ACHN
HOP-92 = test system: HOP-92
SN12C = test system: SN12C
OVCAR-8 = test system: OVCAR-8
HCT-15 = test system: HCT-15
RPMI-8226 = test system: RPMI-8226
DU-145 = test system: DU-145
NCI-H460 = test system: NCI-H460
MOLT-4 = test system: MOLT-4
Hs-578T = test system: Hs-578T
K562 = test system: K562
A498 = test system: A498
SF-295 = test system: SF-295
SK-OV-3 = test system: SK-OV-3

## O=C(/C=C1\Nc2ccccc2N\C1=C/C(=O)c1ccc(F)cc1)c1ccc(F)cc1
MDA-N
  GI50: > 100 µM (inactive)
SR
  GI50: 54.3 µM (inactive)
UACC-62
  GI50: > 100 µM (inactive)
786-0
  GI50: 61.4 µM (inactive)
UO-31
  GI50: > 100 µM (inactive)
BT-549
  GI50: > 100 µM (inactive)
TK-10
  GI50: > 100 µM (inactive)
COLO 205
  GI50: > 100 µM (inactive)
SK-MEL-5
  GI50: > 100 µM (inactive)
HOP-62
  GI50: 61 µM (inactive)
MCF7
  GI50: 15.1 µM (inactive)
LOX IMVI
  GI50: > 100 µM (inactive)
SNB-19
  GI50: > 100 µM (inactive)
MDA-MB-231
  GI50: > 100 µM (inactive)
CAKI-1
  GI50: > 100 µM (inactive)
SK-MEL-2
  GI50: > 100 µM (inactive)
HCT-116
  GI50: > 100 µM (inactive)
OVCAR-3
  GI50: 48.2 µM (inactive)
NCI-H522
  GI50: > 100 µM (inactive)
SF-539
  GI50: > 100 µM (inactive)
HT-29
  GI50: > 100 µM (inactive)
NCI-H23
  GI50: > 100 µM (inactive)
Malme-3M
  GI50: > 100 µM (inactive)
M14
  GI50: > 100 µM (inactive)
A549
  GI50: > 100 µM (inactive)
T47D
  GI50: 63 µM (inactive)
CCRF-CEM
  GI50: 25.5 µM (inactive)
MDA-MB-435
  GI50: > 100 µM (inactive)
OVCAR-4
  GI50: > 100 µM (inactive)
SK-MEL-28
  GI50: > 100 µM (inactive)
SW-620
  GI50: > 100 µM (inactive)
HCC 2998
  GI50: 63.2 µM (inactive)
EKVX
  GI50: > 100 µM (inactive)
SF-268
  GI50: > 100 µM (inactive)
KM12
  GI50: > 100 µM (inactive)
PC-3
  GI50: > 100 µM (inactive)
UACC-257
  GI50: > 100 µM (inactive)
NCI-H226
  GI50: > 100 µM (inactive)
OVCAR-5
  GI50: > 100 µM (inactive)
HL-60
  GI50: 46.5 µM (inactive)
U-251
  GI50: 73.6 µM (inactive)
IGROV-1
  GI50: > 100 µM (inactive)
NCI/ADR-RES
  GI50: > 100 µM (inactive)
RXF 393
  GI50: > 100 µM (inactive)
SNB-75
  GI50: > 100 µM (inactive)
ACHN
  GI50: > 100 µM (inactive)
HOP-92
  GI50: > 100 µM (inactive)
SN12C
  GI50: > 100 µM (inactive)
OVCAR-8
  GI50: > 100 µM (inactive)
HCT-15
  GI50: > 100 µM
RPMI-8226
  GI50: 51.4 µM (inactive)
DU-145
  GI50: > 100 µM (inactive)
NCI-H460
  GI50: 53.7 µM (inactive)
MOLT-4
  GI50: > 100 µM (inactive)
Hs-578T
  GI50: > 100 µM (inactive)
K562
  GI50: > 100 µM (inactive)
A498
  GI50: > 100 µM (inactive)

## COc1ccc2c(c1)CCCC(Br)C2=O (stereo not given)
MDA-N
  GI50: 2.88 µM (inactive)
SR
  GI50: 0.294 µM (active)
UACC-62
  GI50: 2.8 µM (inactive)
786-0
  GI50: 4.15 µM (inactive)
UO-31
  GI50: 2.17 µM (inactive)
BT-549
  GI50: 2.55 µM (inactive)
TK-10
  GI50: 4.21 µM (inactive)
COLO 205
  GI50: 3.44 µM (inactive)
SK-MEL-5
  GI50: 2.55 µM (inactive)
HOP-62
  GI50: 5.55 µM (inactive)
MCF7
  GI50: 3.43 µM (inactive)
LOX IMVI
  GI50: 0.379 µM (active)
SNB-19
  GI50: 8.18 µM (inactive)
MDA-MB-231
  GI50: 2.92 µM (inactive)
CAKI-1
  GI50: 2.96 µM (inactive)
SK-MEL-2
  GI50: 1.24 µM (inactive)
HCT-116
  GI50: 0.407 µM (active)
OVCAR-3
  GI50: 9.08 µM (inactive)
NCI-H522
  GI50: 0.265 µM (active)
SF-539
  GI50: 2.56 µM (inactive)
HT-29
  GI50: 5.31 µM (inactive)
NCI-H23
  GI50: 4.9 µM (inactive)
Malme-3M
  GI50: 4.48 µM (inactive)
M14
  GI50: 3.4 µM (inactive)
A549
  GI50: 4.71 µM (inactive)
T47D
  GI50: 23.9 µM (inactive)
CCRF-CEM
  GI50: 0.337 µM (active)
SF-295
  GI50: 3.99 µM (inactive)
MDA-MB-435
  GI50: 2.02 µM (inactive)
OVCAR-4
  GI50: 6.52 µM (inactive)
SK-MEL-28
  GI50: 6.92 µM (inactive)
SW-620
  GI50: 2.29 µM (inactive)
HCC 2998
  GI50: 7.66 µM (inactive)
EKVX
  GI50: 18.1 µM (inactive)
SF-268
  GI50: 3.35 µM (inactive)
SK-OV-3
  GI50: 3.97 µM (inactive)
KM12
  GI50: 3.24 µM (inactive)
PC-3
  GI50: 3.9 µM (inactive)
UACC-257
  GI50: 11.5 µM (inactive)
NCI-H226
  GI50: 2.18 µM (inactive)
OVCAR-5
  GI50: 5.92 µM (inactive)
HL-60
  GI50: 3.59 µM (inactive)
U-251
  GI50: 4.72 µM (inactive)
IGROV-1
  GI50: 1.51 µM (inactive)
NCI/ADR-RES
  GI50: 4.34 µM (inactive)
RXF 393
  GI50: 4.78 µM (inactive)
SNB-75
  GI50: 12.6 µM (inactive)
ACHN
  GI50: 6.32 µM (inactive)
HOP-92
  GI50: 7.57 µM (inactive)
SN12C
  GI50: 2.75 µM (inactive)
OVCAR-8
  GI50: 3.98 µM (inactive)
HCT-15
  GI50: 0.929 µM
RPMI-8226
  GI50: 2.34 µM (inactive)
DU-145
  GI50: 15.1 µM (inactive)
NCI-H460
  GI50: 3.18 µM (inactive)
MOLT-4
  GI50: 0.136 µM (active)
Hs-578T
  GI50: 17.1 µM (inactive)
K562
  GI50: 0.447 µM (active)
A498
  GI50: 19.6 µM (inactive)

## O=C1c2c(O)ccc(O)c2C(=O)c2c(NCCNC(=O)C(O)C(O)C(O)C(O)CO)ccc(NCCNC(=O)C(O)C(O)C(O)C(O)CO)c21 (stereo not given)
MDA-N
  GI50: < 0.0494 µM (active)
SR
  GI50: < 0.01 µM (active)
UACC-62
  GI50: 0.0154 µM (active)
786-0
  GI50: < 0.01 µM (active)
UO-31
  GI50: 0.0186 µM (active)
BT-549
  GI50: 0.121 µM (active)
TK-10
  GI50: 0.161 µM (active)
COLO 205
  GI50: < 0.01 µM (active)
SK-MEL-5
  GI50: 0.016 µM (active)
HOP-62
  GI50: 0.011 µM (active)
MCF7
  GI50: < 0.01 µM (active)
LOX IMVI
  GI50: 0.0134 µM (active)
SNB-19
  GI50: < 0.01 µM (active)
MDA-MB-231
  GI50: 0.0467 µM (active)
CAKI-1
  GI50: < 0.01 µM (active)
SK-MEL-2
  GI50: 1.08 µM (active)
HCT-116
  GI50: 0.0332 µM (active)
OVCAR-3
  GI50: 0.279 µM (active)
NCI-H522
  GI50: < 0.02 µM (active)
SF-539
  GI50: < 0.01 µM (active)
HT-29
  GI50: 0.03 µM (active)
NCI-H23
  GI50: 0.0178 µM (active)
Malme-3M
  GI50: 0.212 µM (active)
M14
  GI50: < 0.0195 µM (active)
A549
  GI50: < 0.01 µM (active)
T47D
  GI50: 0.0102 µM (active)
CCRF-CEM
  GI50: 0.0316 µM (active)
SF-295
  GI50: < 0.01 µM (active)
MDA-MB-435
  GI50: 0.355 µM (active)
OVCAR-4
  GI50: 0.18 µM (active)
SK-MEL-28
  GI50: 0.211 µM (active)
SW-620
  GI50: 0.0213 µM (active)
HCC 2998
  GI50: 0.135 µM (active)
EKVX
  GI50: 0.165 µM (active)
SF-268
  GI50: 0.0241 µM (active)
SK-OV-3
  GI50: < 0.0233 µM (active)
KM12
  GI50: 0.0277 µM (active)
PC-3
  GI50: 0.131 µM (active)
UACC-257
  GI50: 1.11 µM (active)
NCI-H226
  GI50: < 0.0126 µM (active)
OVCAR-5
  GI50: 0.192 µM (active)
HL-60
  GI50: < 0.01 µM (active)
U-251
  GI50: 0.0109 µM (active)
IGROV-1
  GI50: < 0.0383 µM (active)
NCI/ADR-RES
  GI50: 0.133 µM (active)
RXF 393
  GI50: 0.221 µM (active)
SNB-75
  GI50: 0.0356 µM (active)
ACHN
  GI50: < 0.01 µM (active)
HOP-92
  GI50: < 0.01 µM (active)
SN12C
  GI50: < 0.01 µM (active)
OVCAR-8
  GI50: < 0.0231 µM (active)
HCT-15
  GI50: 0.0138 µM
RPMI-8226
  GI50: < 0.01 µM (active)
DU-145
  GI50: < 0.01 µM (active)
NCI-H460
  GI50: < 0.01 µM (active)
MOLT-4
  GI50: < 0.01 µM (active)
Hs-578T
  GI50: 0.213 µM (active)
K562
  GI50: 0.0104 µM (active)
A498
  GI50: 0.149 µM (active)
